Results published in patent US20070093520A1, “Method of treatment of diarrhea-predominant irritable bowel syndrome in a subject” (priority 2005, published 2007).

Test system: diarrhea-predominant IBS subjects
Assay type: in vivo, human
Details: Cilansetron 2 mg, N=1454
Procedure: The study was performed in approximately 150 study centers. Approximately 1600 eligible subjects were to be given cilansetron 2 mg TID. At Visit 1, pre-treatment assessments were conducted. […] Subjects were to return to the study site one month later for Visit 3 (Day 31) for their first interim assessment. […] All subjects who discontinued from the study were to have the same post-study assessments required at Visit 7 performed at their early termination visit. […]
Stool specimens were analyzed at every visit for occult blood. An independent GERB had been established to provide advice on GI AEs during the course of the study.
Adverse events were assessed at Baseline, at each clinic visit, and at the end of the study (Month 12 or the early termination visit). All AEs, which occurred during the study were followed up in accordance with good medical practice until resolved or judged no longer clinically significant, or if a condition was chronic, until fully characterized. Adverse events could occur in the specified follow-up period and, regardless of the interval since the last administration of the study medication, were treated in the same manner as an AE which occurred during the treatment with study medication. Each AE was evaluated for duration, severity, seriousness, and causal relationship to the investigational drug. The action taken and the outcome were also recorded.
Specifically, subjects who were lost to follow-up and had no post-Baseline contact with the site were excluded from the Safety population. The subjects who discontinued from the study due to lost to follow-up were identified based on the information collected on the study termination CRF page.
After the pretreatment assessment at Visit 1 (Days […] to −3), subjects were to return to the study site for a Baseline assessment and start the treatment at Visit 2 (Day 1).
For the by time-interval analyses of disposition, prevalence of AEs, and of markedly abnormal and predefined changes in laboratory values, vital signs, and ECGs, the following interval windows were used:
Adverse events that were already present prior to the first dose of cilansetron study medication but increased in severity afterwards were considered as treatment-emergent.
The 5% cutoff point was based on the incidence within higher level terms.
Subjects were counted at most once for each primary system organ class and preferred term. Serious AEs that resolved prior to receiving study medication or occurred more than 30 days after the last dose of study medication were not included in the incidence tables. A listing of all SAEs is presented; SAEs with onset prior to receiving study medication or more than 30 days after discontinuation of study medication were flagged. The listing presents lower level term and preferred term of the SAE, severity, action taken, outcome, and relationship of the SAE, start and stop date of the SAE, study day of onset of the SAE, age, race, and sex.

Compound: Cc1nccn1C[C@H]1CCc2c(c3cccc4c3n2CCC4)C1=O [cilansetron, (R)-(−)-4,5,6,8,9,10-hexahydro-10-[(2-methyl-1H-imidazol-1-yl)methyl]-11H-pyrido-[3,2,1-jk]-carbazol-11-one]
- TEAE incidence: Carbohydrate Tolerance Analyses (Incl Diabetes): 2 (<1%) n (%)
- TEAE incidence: Cardiac Enzymes Increased: 1 (<1%) n (%)
- TEAE incidence: Carotid Artery Atheroma: 1 (<1%) n (%)
- TEAE incidence: Carotid Artery Stenosis: 1 (<1%) n (%)
- TEAE incidence: Carpal Tunnel Syndrome: 2 (<1%) n (%)
- TEAE incidence: Cellulitis: 1 (<1%) n (%)
- TEAE incidence: Central Nervous System Haemorrhages and Cerebrovascular Accidents: 1 (<1%) n (%)
- TEAE incidence: Central Nervous system Vascular Disorders NEC: 2 (<1%) n (%)
- TEAE incidence: Cerebral Infarction: 1 (<1%) n (%)
- TEAE incidence: Cervical Root Pain: 1 (<1%) n (%)
- TEAE incidence: Cervical Spinal Cord and Nerve Root Disorders: 1 (<1%) n (%)
- TEAE incidence: Cholesterol Analyses: 25 (2%) n (%)
- TEAE incidence: Colitis Ischaemic: 2 (<1%) n (%)
- TEAE incidence: Colitis NOS: 1 (<1%) n (%)
- TEAE incidence: Colonic Polyp: 2 (<1%) n (%)
- TEAE incidence: Cystitis Acute NOS: 5 (<1%) n (%)
- TEAE incidence: Cystitis NOS: 4 (<1%) n (%)
- TEAE incidence: Defaecation Urgency: 1 (<1%) n (%)
- TEAE incidence: Dental Discomfort: 1 (<1%) n (%)
- TEAE incidence: Dental Pain and Sensation Disorders: 13 (<1%) n (%)
- TEAE incidence: Diaphragmatic Hernias: 2 (<1%) n (%)
- TEAE incidence: Diarrhoea Aggravated: 8 (<1%) n (%)
- TEAE incidence: Diarrhoea Haemorrhagic: 1 (<1%) n (%)
- TEAE incidence: Diarrhoea NOS: 73 (5%) n (%)
- TEAE incidence: Disturbances in Consciousness NEC: 5 (<1%) n (%)
- TEAE incidence: Dizziness: 28 (2%) n (%)
- TEAE incidence: Dry Mouth: 3 (<1%) n (%)
- TEAE incidence: Duodenal Polyp: 1 (<1%) n (%)
- TEAE incidence: Duodenal Ulcer: 1 (<1%) n (%)
- TEAE incidence: Duodenal Ulcers and Perforation: 1 (<1%) n (%)
- TEAE incidence: Duodenitis: 2 (<1%) n (%)
- TEAE incidence: Dysgeusia: 2 (<1%) n (%)
- TEAE incidence: Dyspepsia: 50 (3%) n (%)
- TEAE incidence: Dyspepsia Aggravated: 4 (<1%) n (%)
- TEAE incidence: Dyspeptic Signs and Symptoms: 59 (4%) n (%)
- TEAE incidence: Dysphagia: 1 (<1%) n (%)
- TEAE incidence: Dystonias: 1 (<1%) n (%)
- TEAE incidence: ECG Investigations: 25 (2%) n (%)
- TEAE incidence: Electrocardiogram Abnormal NOS: 2 (<1%) n (%)
- TEAE incidence: Electrocardiogram Change NOS: 1 (<1%) n (%)
- TEAE incidence: Electrocardiogram Pr Interval Prolonged: 1 (<1%) n (%)
- TEAE incidence: Electrocardiogram Pr Shortened: 1 (<1%) n (%)
- TEAE incidence: Electrocardiogram Q Waves Normal: 1 (<1%) n (%)
- TEAE incidence: Electrocardiogram Qt Shortened: 1 (<1%) n (%)
- TEAE incidence: Electrocardiogram St Segment Depression: 3 (<1%) n (%)
- TEAE incidence: Electrocardiogram St Segment Elevation: 3 (<1%) n (%)
- TEAE incidence: Electrocardiogram T Wave Abnormal: 4 (<1%) n (%)
- TEAE incidence: Electrocardiogram T Wave Amplitude Decreased: 1 (<1%) n (%)
- TEAE incidence: Electrocardiogram T Wave Inversion: 7 (<1%) n (%)
- TEAE incidence: Eosinophil Count Increased: 18 (1%) n (%)
- TEAE incidence: Eosinophil Percentage Increased: 2 (<1%) n (%)
- TEAE incidence: Epigastric Discomfort: 2 (<1%) n (%)
- TEAE incidence: Epigastric Hernia: 1 (<1%) n (%)
- TEAE incidence: Eructation: 5 (<1%) n (%)
- TEAE incidence: Facial Cranial Nerve Disorders: 1 (<1%) n (%)
- TEAE incidence: Facial Palsy: 1 (<1%) n (%)
- TEAE incidence: Faecal Abnormality NOS: 3 (<1%) n (%)
- TEAE incidence: Faecal Occult Blood Positive: 9 (<1%) n (%)
- TEAE incidence: Faeces Abnormal: 51 (4%) n (%)
- TEAE incidence: Faeces Discoloured: 2 (<1%) n (%)
- TEAE incidence: Faeces Hard: 32 (2%) n (%)
- TEAE incidence: Food Poisoning NOS: 1 (<1%) n (%)
- TEAE incidence: Frequent Bowel Movements: 5 (<1%) n (%)
- TEAE incidence: Gamma-Glutamyltransferase Decreased: 1 (<1%) n (%)
- TEAE incidence: Gamma-Glutamyltransferase Increased: 19 (1%) n (%)
- TEAE incidence: Gastric Erosions: 2 (<1%) n (%)
- TEAE incidence: Gastric Polyps: 1 (<1%) n (%)
- TEAE incidence: Gastric Ulcer: 2 (<1%) n (%)
- TEAE incidence: Gastric Ulcers and Perforation: 4 (<1%) n (%)
- TEAE incidence: Gastritis Aggravated: 4 (<1%) n (%)
- TEAE incidence: Gastritis NOS: 13 (<1%) n (%)
- TEAE incidence: Gastroenteritis NOS: 24 (2%) n (%)
- TEAE incidence: Gastrointestinal Atonic and Hypomotility Disorders NEC: 228 (16%) n (%)
- TEAE incidence: Gastrointestinal Disorders: 587 (40%) n (%)
- TEAE incidence: Gastrointestinal Disorders NEC: 2 (<1%) n (%)
- TEAE incidence: Gastrointestinal Dyskinetic Disorders: 1 (<1%) n (%)
- TEAE incidence: Gastrointestinal Histopathology Procedures: 22 (2%) n (%)
- TEAE incidence: Gastrointestinal Inflammatory Disorders NEC: 3 (<1%) n (%)
- TEAE incidence: Gastrointestinal Motility Disorder NOS: 1 (<1%) n (%)
- TEAE incidence: Gastrointestinal Mucosal Dystrophies and Secretion Disorders: 2 (<1%) n (%)
- TEAE incidence: Gastrointestinal Neoplasms NEC: 2 (<1%) n (%)
- TEAE incidence: Gastrointestinal Pain NOS: 2 (<1%) n (%)
- TEAE incidence: Gastrointestinal Signs and Symptoms NEC: 12 (<1%) n (%)
- TEAE incidence: Gastrointestinal Spastic and Hypermotility Disorders: 21 (1%) n (%)
- TEAE incidence: Gastrointestinal and Abdominal Pains (Excl Oral and Throat): 223 (15%) n (%)
- TEAE incidence: Gingival Disorders NEC: 1 (<1%) n (%)
- TEAE incidence: Gingivitis: 1 (<1%) n (%)
- TEAE incidence: Glossitis: 1 (<1%) n (%)
- TEAE incidence: Glucose Urine Present: 2 (<1%) n (%)
- TEAE incidence: Haematemesis: 1 (<1%) n (%)
- TEAE incidence: Haematological Analyses NEC: 1 (<1%) n (%)
- TEAE incidence: Haemoglobin Decreased: 1 (<1%) n (%)
- TEAE incidence: Haemorrhoidal Haemorrhage: 9 (<1%) n (%)
- TEAE incidence: Haemorrhoids: 30 (2%) n (%)
- TEAE incidence: Haemorrhoids Aggravated: 1 (<1%) n (%)
- TEAE incidence: Haemorrhoids and Gastrointestinal Varices (Excl Oesophageal): 38 (3%) n (%)
- TEAE incidence: Halitosis: 2 (<1%) n (%)
- TEAE incidence: Headache NOS Aggravated: 2 (<1%) n (%)
- TEAE incidence: Headaches NEC: 104 (7%) n (%)
- TEAE incidence: Herpes Simplex: 3 (<1%) n (%)
- TEAE incidence: Herpes Zoster: 4 (<1%) n (%)
- TEAE incidence: Hiatus Hernia: 2 (<1%) n (%)
- TEAE incidence: Hiccups: 1 (<1%) n (%)
- TEAE incidence: Hyperacidity: 4 (<1%) n (%)
- TEAE incidence: Hypersomnia: 1 (<1%) n (%)
- TEAE incidence: Hypoaesthesia: 2 (<1%) n (%)
- TEAE incidence: Hypoaesthesia Oral: 1 (<1%) n (%)
- TEAE incidence: Ileus Paralytic: 1 (<1%) n (%)
- TEAE incidence: Influenza: 51 (4%) n (%)
- TEAE incidence: Inguinal Hernia NOS: 2 (<1%) n (%)
- TEAE incidence: Inguinal Hernias: 2 (<1%) n (%)
- TEAE incidence: Intercostal Neuralgia: 1 (<1%) n (%)
- TEAE incidence: Intertrigo Candida: 1 (<1%) n (%)
